The values that follow are results of earlier work, collected in patent US20090298852A1, “Pellet-form slow-release preparation for vertigo” (priority 2005, published 2009).

SMILES strings stand for the structures.

With `C(=C\c1ccccc1)/CN1CCN(C(c2ccccc2)c2ccccc2)CC1` [cinnarizine, 1-benzhydryl-4-trans-cinnamylpiperazine], the solubility in water entry is on record as “approximately 2 mg/100 ml”.
